Reference: patent US20060084599A1, “Compositions, methods and kits relating to notch signaling” (Maine Medical Center, priority 2003, published 2006)
Marks after values point to notes of the source that are not given here.

Tests used:
Assay type in all cases: cell-based, murine
[1] = system: Nestin, Nucleostemin, and Bmi1 transcripts; test: RT-PCR of stem cell marker transcripts; details: for levels of Nestin, Nucleostemin and Bmi1 transcripts: p75+/P0- neural crest stem cells, 24 and 48 hours; for relative expression of Nestin, Nucleostemin and Bmi1 transcripts: primary and secondary neurosphere cultures
Experimental: RT-PCR was performed with 1 μg RNA using the Platinum Taq One Step RT-PCR kit (Invitrogen) as follows: RT (30 minutes at 50° C.), PCR (40 cycles at 94° C. for 15 seconds, at 58° C. for 30 seconds and 72° C. for 1 minute). All amplified cDNA was visualized with ethidium bromide followed by 1.5% agarose gel electrophoresis. RT-PCR analysis of fgf and gapdh was performed as previously described elsewhere herein. RT-PCR analysis of stem cell RNA was performed as previously described (Verdi et al., 1994, Neuron 13:1359-1372; Verdi et al., 1996, Neuron 16:515-527) using primers generating amplification products of Nucleostemin from 894 to 1304 of the mouse cDNA (sense: Nucleostemin 894 5′-CAAATGTGGGGAAAAGCAGTGTCA-3′ [SEQ ID NO:34] and antisense: Nucleostemin 1304 5′-GCAGGGGGATGGCAATAGTAACC-3′ [SEQ ID NO:35]); Bmi1 from 242 to 632 of mouse cDNA (sense: Bmi 242 5′-AATTAGTCCCAGGGCTTTTCAA-3′ [SEQ ID NO:36] and antisense: Bmi 632 5′-GGGCCATTTCTTCTCCAGGTAT-3′ [SEQ ID NO:37]), and Nestin from 320-748 (sense: Nestin 320 5′-CA ACC TTG CCG AAG AGC TGG-3′ [SEQ ID NO:38] and antisense: Nestin 720 5′-TCTAAGCGACTCTCCGAGCGC-3′ [SEQ ID NO:39]). Each reaction product was measured as a ratio relative to the amplification product of actin and samples were run in triplicate. All RT-PCR experiments were performed at least three times from separate stem cell isolations. Dual Luciferase Reporter Assay

NCSC populations [2] = test: Clonogenic differentiation of primary NCSC clones (differentiation markers, GFAP immunoreactivity); details: for NCSC clones not expressing gliogenic or neurogenic differentiation markers: after 7 days of expansion
Experimental: (§1) Clonogenic assays were performed as described (Stemple et al., 1992, Cell 71:973-985). Briefly, populations of murine NCSC were plated at a clonal density and maintained for a maximum of 14 days in Morrison media supplemented with 15% chick embryo extract (Morrison et al., 1999, Cell 96:737-749). The resulting clones were fixed in an acetic acid:ethanol solution (2:1) and stained with antibodies against peripherin (Chemicon) to detect neurons, smooth muscle actin (Sigma) to detect myofibroblasts, and GFAP (Chemicon) to detect Schwann cells. Clones were scored based on the appearance of just one phenotypic representative. The number and percentage of clones containing neurons only (N), Schwann cells only (S), myofibroblasts only (M), N+S, N+M, N+S+M, and S+M were scored at day 14 unless otherwise stated. The production of each representative phenotype in each individual clone was also scored to complement the clonal population assay.
Instead of examining the NCSC progeny after 14 days, developing clones were examined beginning at day 2 in order to determine the time period when gliogenic differentiation was initiated.
Specifically, clonogenic differentiation and serial subcloning assays were performed using NCSC clones incubated with either thrombin, sDl1, sJ1 or TRAP.

NCSC populations [3] = test: Serial subcloning and clonogenic differentiation of secondary NCSC; design: G (glial only) colonies / Sm (smooth muscle only) colonies / G + Sm colonies: unit not given here; details: for G (glial only) colonies / G + Sm colonies / N (neurons only) colonies / N + G + Sm (trifatent) colonies / N + G colonies / N + Sm colonies / Sm (smooth muscle only) colonies: differentiation profile of secondary NCSC clones; for G (glial only) colonies / G + Sm colonies / N (neurons only) colonies / N + G + Sm (trifatent) colonies / N + G colonies / N + Sm colonies / Sm (smooth muscle only) colonies / Secondary NSSC/ Founder: mean ± SD of three experiments; for clones that were trifatent (neurons, glial, and smooth muscle progeny): secondary clones from treated founder clones; for Secondary NSSC/ Founder: secondary stem cells from NCSC founders after ten days of expansion
Experimental: as §1
In order to generate secondary NCSC populations, founder clones originating from differentiating E10 clones at distinct time points during NCSC differentiation (days 2 through 18) were treated with trypsin and replated at a cell clonal density using methods previously described (Kubu et al., 2000, Genomics 70:150-152). The resulting cells were subjected to immunofluorescence microscopy using both p75^+ and P0^− antibodies (Kubu et al., 2000, Genomics 70:150-152) and the p75^+/P0^− cells identified as putative stem cells. All non-p75^+/P0^− cells were removed from the dish with a tungsten needle. The cultures of secondary NCSC clones were subjected to the clonogenic assay as described above.

cortical neurospheres = test: Cortical neurosphere model, secondary sphere formation; details: for F/SP × 10^2 / Cells/Founder (F) / Secondary Spheres (SP): at day 10; for Cells/Founder (F) / Secondary Spheres (SP): mean ± SD of three experiments; for secondary spheres per primary sphere: primary spheres grown 2 weeks with factor, secondary spheres in standard media
Source text: Murine E13 cerebral cortices were dissected, the ventricular zone isolated, dissected free of the meninges and utilized as a source for the generation of clonal neurspheres. The resulting cells were dispersed by aspiration to produce single cells and cells expressing the […], CD24 as previously described (Rietze et al., 2001), and peanut agglutinin antigen (PNA) were sorted using a FASC Vantage SE cell sorter at a low gate (CD24^low/PNA^low), and the cells were subjected to immunofluoresence microscopy using an antibody against CD24 (Rietze et al., 2001, Nature 412:736-739). Double-positive cells (2×10^3 /ml) were plated in suspension as described (Reynolds et al., 1992, J. Neurosci. 12:4565-4574; Reynolds et al., 1992, Science 255:1707-1710) and secondary neurospheres generated 14 days later by isolating single spheres followed by trypsin digestion of each sphere. Cells obtained from the sphere were placed in suspension culture at a clonal cell seed density and colonies selected.
The E14 prefrontal ventricular zone was dissected and plated at a clonal neurosphere-forming density in the presence of either sJ1, sDl1, thrombin, TRAP or no supplementation. After 2 weeks, the clones were dissociated to single cells and secondary spheres were generated using standard media with no supplementation (Reynolds et al., 1992, J. Neurosci. 12:4565-4574).
Secondary spheres (SP) are formed from the dissociation of founder (F) spheres. The data presented are the number of colonies (mean ± SD of three experiments). (*=p#0.05).

FGF1.A transcript = test: RT-PCR analysis of FGF1.A mRNA in NCSC; details: 48 hours; 7.5 nM sJ1, 5.0 nM sDl1, 10 μg/ml α-thrombin or 5 μg/ml TRAP

Molecule | levels of Nestin, Nucleostemin and Bmi1 transcripts [1] | relative expression of Nestin, Nucleostemin and Bmi1 transcripts [1] | NCSC clones not expressing gliogenic or neurogenic differentiation markers (NCSC populations [2]) | percentage of the colony expressing the glial-specific protein (GFAP) (NCSC populations [2]; at day 7) | gliogenic differentiation of NCSC (NCSC populations [2]; two week differentiation assay) | G (glial only) colonies (NCSC populations [3]) | G + Sm colonies (NCSC populations [3]) | N (neurons only) colonies (NCSC populations [3]) | N + G + Sm (trifatent) colonies (NCSC populations [3]) | N + G colonies (NCSC populations [3]) | N + Sm colonies (NCSC populations [3]) | Sm (smooth muscle only) colonies (NCSC populations [3]) | clones that were trifatent (neurons, glial, and smooth muscle progeny) (NCSC populations [3]) | Secondary NSSC/ Founder (NCSC populations [3]) | F/SP × 10^2 (cortical neurospheres) | Cells/Founder (F) (cortical neurospheres) | Secondary Spheres (SP) (cortical neurospheres) | secondary spheres per primary sphere (cortical neurospheres) | expression of the FGF1.A transcript in NCSC (FGF1.A transcript) | exposure time after which GFAP immunoreactive cells were detected (NCSC populations [2]; NCSC populations)
sJ1: Soluble Jagged1, amino acid residues about 1 to 1067 (SEQ ID NO:3) of full-length human Jagged1 | no significant change | elevated | 84±7% | 23±5 | capable of inducing gliogenic differentiation of the NCSC population over the two week period | 7.8 ± 1.4 | 3.4 ± 2.8 | 0 | 74.1 ± 9.1 | 7.0 ± 5.6 | 1.5 ± 1.7 | 6.2 ± 1.0 | 74.1±9% | 26.2 ± 6 | 10%* | 527 ± 170* | 55 ± 14 | 64±11 | induced the expression of the FGF1.A transcript | 
thrombin | no significant change | elevated | 75±11% |  |  | 0 ± 0 | 2.0 ± 2.1 | 0 | 86.8 ± 2.1 | 3.93 ± 3.8 | 4.5 ± 2.1 | 2.6 ± 1.01 | 86.8±2.1% | 36.8 ± 6.3 | 13%* | 488 ± 166* | 64 ± 11 | 55±14 | induced the expression of the FGF1.A transcript | 
sDl1: soluble non-transmembrane form (extracellular domain) of the Notch ligand Delta1 (protein, left off: small tags and cut ends, soluble non-transmembrane form (extracellular domain) of the Notch ligand Delta1) QVWSSGVFELKLQEFVNKKGLLGNRNCCRGGAGPPPCACRTFFRVCLKHYQASVSPEPPCTYGSAVTPVLGVDSFSLPDGGGADSAFSNPIRFPFGFTWPGTFSLIIEALHTDSPDDLATENPERLISRLATQRHLTVGEEWSQDLHSSGRTDLKYSYRFVCDEHYYGEGCSVFCRPRDDAFGHFTCGERGEKVCNPGWKGPYCTEPICLPGCDEQHGFCDKPGECKCRVGWQGRYCDECIRYPGCLHGTCQQPWQCNCQEGWGGLFCNQDLNYCTHHKPCKNGATCTNTGQGSYTCSCRPGYTGATCELGIDECDPSPCKNGGSCTDLENSYSCTCPPGFYGKICELSAMTCADGPCFNGGRCSDSPDGGYSCRCPVGYSGFNCEKKIDYCSSSPCSNGAKCVDLGDAYLCRCQAGFSGRHCDDNVDDCASSPCANGGTCRDGVNDFSCTCPPGYTGRNCSAPVSRCEHAPCHNGATCHERGHRYVCECARGYGGPNCQFLLPELPPGPAVVDLTEKLEGQGGPFPW | sharply decreased |  | 0±0% |  |  | 72 ± 6.4 | 3.4 ± 2.8 | 0 | 0.5 ± 0.7 | 0 | 0 | 20.5 ± 6.5 | 0.5% | 0.6 ± 1.0 | 2.0% | 150 ± 69* | 3 ± 3 | 3±3 | did not influence the steady-state levels of the FGF1.A transcript | 48 h
